The results in this text go back to patent EP0440303A1 (PROBICOM RESEARCH B.V., priority 1990, dated 1991).

Data set [1] addresses T1, tripeptidase of L.lactis subsp. cremoris Wg2 (Lactococcus lactis subsp. cremoris, UniProt P0C2T7).
T1 sequence (P0C2T7 1-413): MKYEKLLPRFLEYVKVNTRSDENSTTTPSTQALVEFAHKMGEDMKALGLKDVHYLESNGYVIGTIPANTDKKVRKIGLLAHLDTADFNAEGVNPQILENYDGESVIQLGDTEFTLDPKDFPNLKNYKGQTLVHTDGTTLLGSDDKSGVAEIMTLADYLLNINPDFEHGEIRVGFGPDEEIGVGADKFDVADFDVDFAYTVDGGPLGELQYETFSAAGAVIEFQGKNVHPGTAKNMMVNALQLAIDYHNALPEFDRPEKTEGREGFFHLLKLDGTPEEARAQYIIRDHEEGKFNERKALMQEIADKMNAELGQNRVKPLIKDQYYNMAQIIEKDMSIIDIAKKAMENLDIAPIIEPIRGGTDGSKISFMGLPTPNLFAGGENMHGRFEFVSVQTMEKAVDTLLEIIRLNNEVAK
Briefly: biochemical. The note with it: read-out: inhibition of the enzyme activity.

Data set [2] addresses T1, tripeptidase of L.lactis subsp. cremoris Wg2. Briefly: Effects of chemical agents on the peptidase activity (leu3 hydrolysis). Format: biochemical.
Substrate in data set [3]: CC(C)C[C@H](NC(=O)[C@H](CC(C)C)NC(=O)[C@@H](N)CC(C)C)C(=O)O
Briefly: Determination of kinetic parameters for leu3 hydrolysis (coupled enzyme reaction). Format: biochemical, L.lactis subsp. cremoris Wg2. As to conditions: other: leu₃ as substrate, 30°C.

The mark [4] stands for this setting: pH 7, read-out: relative activity (%).

Read-outs that look alike come from different tables or passages of the source.

Regarding `O=C(O)CN(CCN(CC(=O)O)CC(=O)O)CC(=O)O` [EDTA], the inhibition at 200 µM in data set [1] was 79%.
Turning to `CCN1C(=O)C=CC1=O` [NEM, N-ethylmaleimide], the “effect on the enzyme activity (in words)” value in data set [2] is “slightly inhibited the activity”. Further, the activity at 500 µM in data set [2] (setting [4]) came out at 76%.
For `O=C(O)c1cc[c]([Hg][Cl])cc1` [pCMB, p-chloromercuribenzoate], the “effect on the enzyme (summary in words)” value in data set [2] is recorded as “not inhibited”.
Regarding `O=S(=O)(O)c1cc[c]([Hg][Cl])cc1` [pCMBS, p-chloromercuribenzenesulphonate], the “effect on the enzyme (summary in words)” value in data set [2] is recorded as “not inhibited”.
On to `OCCS` [β-Mercaptoethanol, β-mercaptoethanol], for which, in data set [2] (NEM 0.5 mM, cystine 0.05 mM, phenylarsine oxide 0.1 mM, DTT 1 mM, β-mercaptoethanol 0.4 mM, ferricyanide 3 mM after the reducing agents), the “effect on the enzyme activity (in words)” value is given as “strong inhibition”. In addition, the activity at 400 µM in data set [2] (setting [4]) was 14%. In data set [2] (summary statement, concentration not given), the “effect on the enzyme (summary in words)” value is recorded as “strong inhibition”.

B1: tripeptidase of L.lactis subsp. cremoris Wg2 (Lactococcus cremoris) (protein)
chain: T1 sequence (P0C2T7 1-413)
notes: the resulting supernatant (i.e. cell-free extract) was used for enzyme isolation; made in house; host or cells: Natural producer L. lactis subsp. cremoris Wg2 (proteinase-negative variant), not recombinant; Purified by DEAE-Sephacel, Phenyl-Sepharose, Sephadex G-100 SF and HPLC TSK G3000 SW
As for B1, in data set [3], the Km was found to be 150 µM, the Vmax turned out to be 151 µmol/min.mg protein and the kcat was 264 s⁻¹.

As a reminder, the inhibition is how much of the control response was suppressed. In general, Km refers to the substrate concentration at which the rate is half of its maximum. Broadly, the kcat is the number of substrate molecules converted per active site and unit of time at saturation.
